Measured values published in US20230085307A1, “PYRIDAZINONE COMPOUND AND HERBICIDE” (NISSAN CHEMICAL CORPORATION, priority 2019, published 2023).

What was measured:
late watergrass = assay: Test Example 1: herbicidal activity, application before weed generation under submerged conditions (Table 16, symbol A); assay type: in vivo, late watergrass (Echinochloa oryzicola); conditions: 320 g/ha applied herbicide
Summary of the method: (§1)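 Alluvial soil was flooded to 4 cm depth, weed seeds were sown mixed and 2.5-leaf rice seedlings were transplanted. On sowing day, the compound's emulsion, diluted in water to a set dose, was applied to the water surface. Plants grew at 25–30 °C and were scored 0–5 after three weeks.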

Japanese bulrush = assay: Test Example 1: herbicidal activity, application before weed generation under submerged conditions (Table 16, symbol B); assay type: in vivo, Japanese bulrush (Schoenoplectus juncoides); conditions: 320 g/ha applied herbicide
Summary of the method: as §1

oval-leafed pondweed = assay: Test Example 1: herbicidal activity, application before weed generation under submerged conditions (Table 16, symbol C); assay type: in vivo, oval-leafed pondweed (Monochoria vaginalis); conditions: 320 g/ha applied herbicide
Summary of the method: as §1

barnyard grass [1] = assay: Test Example 3: herbicidal effect by foliage application, Wagner pot (Table 18, symbol H); assay type: in vivo, barnyard grass (Echinochloa crus-galli); conditions: amount of applied herbicide 320 g/ha
Summary of the method: (§2)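 Plants were sown in alluvial soil held under 0.1–0.5 cm standing water and grown 14 days in a greenhouse at 25–30 °C. An emulsifiable formulation, water-diluted to the set dose, was then sprayed onto the foliage, and effects were scored three weeks later using previously defined criteria.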

Chinese sprangletop = assay: Test Example 3: herbicidal effect by foliage application, Wagner pot (Table 18, symbol D); assay type: in vivo, chinese sprangletop (Leptochloa chinensis); conditions: amount of applied herbicide 320 g/ha
Summary of the method: as §2

rice flat sedge = assay: Test Example 3: herbicidal effect by foliage application, Wagner pot (Table 18, symbol E); assay type: in vivo, rice flat sedge (Cyperus iria); conditions: amount of applied herbicide 320 g/ha
Summary of the method: as §2

southern crabgrass [2] = assay: Test Example 4: herbicidal effect by soil treatment (Table 19, symbol F); assay type: in vivo, southern crabgrass (Digitaria ciliaris); conditions: amount of applied herbicide 320 g/ha
Summary of the method: (§3)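 Scoring uses the grading scale of an earlier test, three weeks post-application. Treatment consists of spraying a diluted emulsion formulation across the surface of sterilized diluvial soil in which seeds are buried near 1.5 cm deep; boxes are kept in a greenhouse between 25° C. and 30° C.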

green foxtail [3] = assay: Test Example 4: herbicidal effect by soil treatment (Table 19, symbol G); assay type: in vivo, green foxtail (Setaria viridis); conditions: amount of applied herbicide 320 g/ha
Summary of the method: as §3

barnyard grass [4] = assay: Test Example 4: herbicidal effect by soil treatment (Table 19, symbol H); assay type: in vivo, barnyard grass (Echinochloa crus-galli); conditions: amount of applied herbicide 320 g/ha
Summary of the method: as §3

wild oat [5] = assay: Test Example 4: herbicidal effect by soil treatment (Table 19, symbol I); assay type: in vivo, wild oat (Avena fatua); conditions: amount of applied herbicide 320 g/ha
Summary of the method: as §3

blackgrass [6] = assay: Test Example 4: herbicidal effect by soil treatment (Table 19, symbol J); assay type: in vivo, blackgrass (Alopecurus myosuroides); conditions: amount of applied herbicide 320 g/ha
Summary of the method: as §3

Italian ryegrass [7] = assay: Test Example 4: herbicidal effect by soil treatment (Table 19, symbol K); assay type: in vivo, Italian ryegrass (Lolium multiflorum); conditions: amount of applied herbicide 320 g/ha
Summary of the method: as §3

windgrass [8] = assay: Test Example 4: herbicidal effect by soil treatment (Table 19, symbol L); assay type: in vivo, windgrass (Apera spica-venti); conditions: amount of applied herbicide 320 g/ha
Summary of the method: as §3

velvetleaf [9] = assay: Test Example 4: herbicidal effect by soil treatment (Table 19, symbol M); assay type: in vivo, velvetleaf (Abutilon theophrasti); conditions: amount of applied herbicide 320 g/ha
Summary of the method: as §3

redroot pigweed [10] = assay: Test Example 4: herbicidal effect by soil treatment (Table 19, symbol N); assay type: in vivo, redroot pigweed (Amaranthus retroflexus); conditions: amount of applied herbicide 320 g/ha
Summary of the method: as §3

lambsquarters [11] = assay: Test Example 4: herbicidal effect by soil treatment (Table 19, symbol O); assay type: in vivo, lambsquarters (Chenopodium album); conditions: amount of applied herbicide 320 g/ha
Summary of the method: as §3

chickweed [12] = assay: Test Example 4: herbicidal effect by soil treatment (Table 19, symbol P); assay type: in vivo, common chickweed (Stellaria media); conditions: amount of applied herbicide 320 g/ha
Summary of the method: as §3

false cleavers [13] = assay: Test Example 4: herbicidal effect by soil treatment (Table 19, symbol Q); assay type: in vivo, false cleavers (Galium spurium); conditions: amount of applied herbicide 320 g/ha
Summary of the method: as §3

persian speedwell [14] = assay: Test Example 4: herbicidal effect by soil treatment (Table 19, symbol R); assay type: in vivo, Persian speedwell (Veronica persica); conditions: amount of applied herbicide 320 g/ha
Summary of the method: as §3

southern crabgrass [15] = assay: Test Example 5: herbicidal effect by foliage application, plastic box (Table 20, symbol F); assay type: in vivo, southern crabgrass (Digitaria ciliaris); conditions: foliage application, 320 g/ha, evaluated three weeks after application
Summary of the method: (§4)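 Post-emergence foliar test in sterilized diluvial soil. Compound applied as water-diluted emulsion at a predetermined rate to 14-day-old plants; evaluation at three weeks.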

green foxtail [16] = assay: Test Example 5: herbicidal effect by foliage application, plastic box (Table 20, symbol G); assay type: in vivo, green foxtail (Setaria viridis); conditions: foliage application, 320 g/ha, evaluated three weeks after application
Summary of the method: as §4

barnyard grass [17] = assay: Test Example 5: herbicidal effect by foliage application, plastic box (Table 20, symbol H); assay type: in vivo, barnyard grass (Echinochloa crus-galli); conditions: foliage application, 320 g/ha, evaluated three weeks after application
Summary of the method: as §4

wild oat [18] = assay: Test Example 5: herbicidal effect by foliage application, plastic box (Table 20, symbol I); assay type: in vivo, wild oat (Avena fatua); conditions: foliage application, 320 g/ha, evaluated three weeks after application
Summary of the method: as §4

blackgrass [19] = assay: Test Example 5: herbicidal effect by foliage application, plastic box (Table 20, symbol J); assay type: in vivo, blackgrass (Alopecurus myosuroides); conditions: foliage application, 320 g/ha, evaluated three weeks after application
Summary of the method: as §4

Italian ryegrass [20] = assay: Test Example 5: herbicidal effect by foliage application, plastic box (Table 20, symbol K); assay type: in vivo, Italian ryegrass (Lolium multiflorum); conditions: foliage application, 320 g/ha, evaluated three weeks after application
Summary of the method: as §4

windgrass [21] = assay: Test Example 5: herbicidal effect by foliage application, plastic box (Table 20, symbol L); assay type: in vivo, windgrass (Apera spica-venti); conditions: foliage application, 320 g/ha, evaluated three weeks after application
Summary of the method: as §4

velvetleaf [22] = assay: Test Example 5: herbicidal effect by foliage application, plastic box (Table 20, symbol M); assay type: in vivo, velvetleaf (Abutilon theophrasti); conditions: foliage application, 320 g/ha, evaluated three weeks after application
Summary of the method: as §4

redroot pigweed [23] = assay: Test Example 5: herbicidal effect by foliage application, plastic box (Table 20, symbol N); assay type: in vivo, redroot pigweed (Amaranthus retroflexus); conditions: foliage application, 320 g/ha, evaluated three weeks after application
Summary of the method: as §4

lambsquarters [24] = assay: Test Example 5: herbicidal effect by foliage application, plastic box (Table 20, symbol O); assay type: in vivo, lambsquarters (Chenopodium album); conditions: foliage application, 320 g/ha, evaluated three weeks after application
Summary of the method: as §4

chickweed [25] = assay: Test Example 5: herbicidal effect by foliage application, plastic box (Table 20, symbol P); assay type: in vivo, common chickweed (Stellaria media); conditions: foliage application, 320 g/ha, evaluated three weeks after application
Summary of the method: as §4

false cleavers [26] = assay: Test Example 5: herbicidal effect by foliage application, plastic box (Table 20, symbol Q); assay type: in vivo, false cleavers (Galium spurium); conditions: foliage application, 320 g/ha, evaluated three weeks after application
Summary of the method: as §4

persian speedwell [27] = assay: Test Example 5: herbicidal effect by foliage application, plastic box (Table 20, symbol R); assay type: in vivo, Persian speedwell (Veronica persica); conditions: foliage application, 320 g/ha, evaluated three weeks after application
Summary of the method: as §4

COc1ccc2sc(-c3ccccc3)c(-c3c(O)c(C)nn(C)c3=O)c2c1 [2-164]
Herbicidal effect on A: late watergrass (grade 0-5) (late watergrass): 3 (Herbicidal rate of 40% or more and less than 70%)
Herbicidal effect on B: Japanese bulrush (grade 0-5) (Japanese bulrush): 0 (Herbicidal rate of 5% or less (almost no effect))
Herbicidal effect on C: oval-leafed pondweed (grade 0-5) (oval-leafed pondweed): 0 (Herbicidal rate of 5% or less (almost no effect))
herbicidal effect on H: barnyard grass (barnyard grass [1]): 2 (Herbicidal rate of 20% or more and less than 40%)
herbicidal effect on D: Chinese sprangletop (Chinese sprangletop): 3 (Herbicidal rate of 40% or more and less than 70%)
herbicidal effect on E: rice flat sedge (rice flat sedge): 4 (Herbicidal rate of 70% or more and less than 90%)
F: southern crabgrass, herbicidal effect rating (southern crabgrass [2]): 4 (Herbicidal rate of 70% or more and less than 90%)
G: green foxtail, herbicidal effect rating (green foxtail [3]): 5 (Herbicidal rate of 90% or more (almost completely withered))
H: barnyard grass, herbicidal effect rating (barnyard grass [4]): 2 (Herbicidal rate of 20% or more and less than 40%)
I: wild oat, herbicidal effect rating (wild oat [5]): 1 (Herbicidal rate of 5% or more and less than 20%)
J: blackgrass, herbicidal effect rating (blackgrass [6]): 0 (Herbicidal rate of 5% or less (almost no effect))
K: Italian ryegrass, herbicidal effect rating (Italian ryegrass [7]): 2 (Herbicidal rate of 20% or more and less than 40%)
L: windgrass, herbicidal effect rating (windgrass [8]): 3 (Herbicidal rate of 40% or more and less than 70%)
M: velvetleaf, herbicidal effect rating (velvetleaf [9]): 0 (Herbicidal rate of 5% or less (almost no effect))
N: redroot pigweed, herbicidal effect rating (redroot pigweed [10]): 4 (Herbicidal rate of 70% or more and less than 90%)
O: lambsquarters, herbicidal effect rating (lambsquarters [11]): 4 (Herbicidal rate of 70% or more and less than 90%)
P: chickweed, herbicidal effect rating (chickweed [12]): 5 (Herbicidal rate of 90% or more (almost completely withered))
Q: false cleavers, herbicidal effect rating (false cleavers [13]): 2 (Herbicidal rate of 20% or more and less than 40%)
R: persian speedwell, herbicidal effect rating (persian speedwell [14]): 4 (Herbicidal rate of 70% or more and less than 90%)
herbicidal effect on F: southern crabgrass (criteria 0-5) (southern crabgrass [15]): 4 (Herbicidal rate of 70% or more and less than 90%)
herbicidal effect on G: green foxtail (criteria 0-5) (green foxtail [16]): 5 (Herbicidal rate of 90% or more (almost completely withered))
herbicidal effect on H: barnyard grass (criteria 0-5) (barnyard grass [17]): 1 (Herbicidal rate of 5% or more and less than 20%)
herbicidal effect on I: wild oat (criteria 0-5) (wild oat [18]): 4 (Herbicidal rate of 70% or more and less than 90%)
herbicidal effect on J: blackgrass (criteria 0-5) (blackgrass [19]): 3 (Herbicidal rate of 40% or more and less than 70%)
herbicidal effect on K: Italian ryegrass (criteria 0-5) (Italian ryegrass [20]): 4 (Herbicidal rate of 70% or more and less than 90%)
herbicidal effect on L: windgrass (criteria 0-5) (windgrass [21]): 5 (Herbicidal rate of 90% or more (almost completely withered))
herbicidal effect on M: velvetleaf (criteria 0-5) (velvetleaf [22]): 3 (Herbicidal rate of 40% or more and less than 70%)
herbicidal effect on N: redroot pigweed (criteria 0-5) (redroot pigweed [23]): 5 (Herbicidal rate of 90% or more (almost completely withered))
herbicidal effect on O: lambsquarters (criteria 0-5) (lambsquarters [24]): 3 (Herbicidal rate of 40% or more and less than 70%)
herbicidal effect on P: chickweed (criteria 0-5) (chickweed [25]): 5 (Herbicidal rate of 90% or more (almost completely withered))
herbicidal effect on Q: false cleavers (criteria 0-5) (false cleavers [26]): 5 (Herbicidal rate of 90% or more (almost completely withered))
herbicidal effect on R: persian speedwell (criteria 0-5) (persian speedwell [27]): 5 (Herbicidal rate of 90% or more (almost completely withered))
